Several values for one entry are separate records, joined by “and”; a condition that tells them apart may be missing. Equal entries are not always repeated. Numbered stars: 1 amine (or outer) side, 2 acyl side, 3 side chain; on linkers, the order of the positions; unused ones are H or OH. Bridge positions count the residues as written; N and C are the ends. Square brackets hold non-standard residues; d marks the D form. Peptide text beside a SMILES is read from it. * marks the point of attachment. Leu(3R-OH,Nα-propionyl) = CCC(=O)N[C@H](C(=O)*)[C@H](O)C(C)C; X1 = CC(C)[C@@H](O[*:3])[C@H](N[*:1])C(=O)[*:2]; NMeT = CN[C@H](C(=O)O)[C@@H](C)O; dPhLac = O=C(O)[C@H](O)Cc1ccccc1; NMeA = CN[C@@H](C)C(=O)O; NMeDha = C=C(NC)C(=O)O
Tests used:
[1] = tested on: MEK1; experiment: Western blot of ERK1/2 phosphorylation induced by MEK1 (MEK1-WT / MEK1-DD); format: cell-based, human
Protocol: (§1) HEK293SL cells (10^5 cells per well) were seeded in a poly-L-lysine-coated six-well plate and transiently transfected with 3 μg Flag-AT1R, HA-B2R or HA-β2AR and/or 500 ng Flag-MEK1-WT, Flag-MEK1-DD, Flag-BRAF-WT, Flag-BRAF-V600E, Flag-K-Ras-WT, Flag-K-Ras-G12V, HA-ARF6-WT, or HA-ARF6-T27N. Gαq/11 KO and βarr1/2 KO cells were seeded onto 100 mm dishes at a density of 10^6 cells per dish. Next day, cells were transfected with 3 μg AT1R alone or along with 500 ng of β-arrestin2 using PEI. After 18 h of transfection, cells were detached and re-seeded onto poly-L-lysine coated 12-well plates (~1.5–2 × 10^5cells/well) for subsequent experiments. Forty-eight hours post transfection, in a 37 °C water bath, cells were serum-starved for 30 min, pretreated with DMSO (0.1%) or compound 21/Rasarfin (50 µM or at indicated concentrations) for 30 min, then stimulated or not with the indicated ligand [AngII (1 µM), BK (1 µM), Iso (10 µM) or EGF (100 ng/ml)] at indicated times. Cells were put on ice, washed with PBS and solubilized in 2x laemmli buffer (250 mM Tris–HCl pH 6.8, 2% SDS (w/v), 10% glycerol (v/v), 0.01% bromophenol blue (w/v) and 5% β-mercaptoethanol (v/v)) by heating at 65 °C for 15 min. Lysates were resolved on 10 or 14% SDS-PAGE, transferred to nitrocellulose membranes and immunoblotted for p-ERK1/2, ERK1/2, p-Akt, Akt, HA, Myc, β-actin or FLAG. ImageLab 5.2 software was used to quantify the digital blots as fold of the phosphorylated protein over total protein, which were then normalized as indicated in the figure legends. Uncropped immunoblots are provided in the Source Data file.

[2] = target: T1, Gαq (Homo sapiens, UniProt P50148); experiment: Gαq BRET sensor, AT1R-mediated; format: cell-based
T1 construct: expressed in transfected cells; host or cells: HEK293SL
T1 sequence (P50148 whole entry): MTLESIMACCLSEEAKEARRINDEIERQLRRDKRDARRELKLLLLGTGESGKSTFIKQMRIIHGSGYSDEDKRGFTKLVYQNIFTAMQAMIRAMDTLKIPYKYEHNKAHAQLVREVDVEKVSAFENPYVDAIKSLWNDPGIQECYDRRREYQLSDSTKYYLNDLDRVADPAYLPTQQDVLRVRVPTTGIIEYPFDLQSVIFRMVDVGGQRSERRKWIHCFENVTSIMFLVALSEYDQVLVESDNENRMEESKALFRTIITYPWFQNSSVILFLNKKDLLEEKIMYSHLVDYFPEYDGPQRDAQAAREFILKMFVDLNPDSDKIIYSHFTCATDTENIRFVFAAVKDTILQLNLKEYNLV
T1 sequence (P62873 whole entry partner): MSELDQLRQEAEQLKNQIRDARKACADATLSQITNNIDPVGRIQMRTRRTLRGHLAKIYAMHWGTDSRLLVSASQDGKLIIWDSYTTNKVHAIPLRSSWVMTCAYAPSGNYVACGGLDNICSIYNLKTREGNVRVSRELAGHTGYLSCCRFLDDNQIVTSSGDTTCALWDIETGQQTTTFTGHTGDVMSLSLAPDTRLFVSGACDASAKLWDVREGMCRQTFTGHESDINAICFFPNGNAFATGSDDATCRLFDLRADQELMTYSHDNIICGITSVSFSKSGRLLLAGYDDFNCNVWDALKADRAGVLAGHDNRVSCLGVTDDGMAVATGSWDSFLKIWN
T1 sequence (P63211 2-71 partner limits assumed): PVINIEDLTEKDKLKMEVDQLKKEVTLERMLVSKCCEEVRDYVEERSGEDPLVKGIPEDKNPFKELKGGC
Protocol: HEK293SL cells were seeded at a density of 7.5 × 10^5 cells per 100-mm dish and 24 h later, transiently transfected as such. For receptor internalization experiments, cells were transfected with 0.12 μg AT1R-RlucII, B2R-RlucII, or β2AR-RlucII and 0.48 μg of either rGFP-CAAX (to assess removal from the PM) or rGFP-FYVE (to assess accumulation in the endosomes). For β-arrestin recruitment assays, cells were transfected with 0.48 μg of receptor-YFP along with 0.12 μg of β-arrestin-RlucII. For β-arrestin/AP-2 binding experiments, cells were transfected with 1 μg Flag-AT1R, 1 μg β2-Adaptin-YFP, and 0.12 μg β-arrestin2-RlucII. For G protein activation, cells were transfected with 3 μg of sp-Flag-AT1R along with either 4.5 μg of the Gαq-polycistronic BRET sensor or 0.24 μg of the Gαi3-RlucII and 0.6 μg of GFP10-Gγ2 and Gβ1 sensors or 0.12 μg PKN-RBD-RlucII and 0.48 μg of rGFP-CAAX. For PKC activation, cells were transfected with 3 μg of sp-Flag-AT1R and 0.18 μg of the PKC sensor. For GTPase activation experiments, cells were transfected with 1 μg Flag-AT1R, 0.48 μg of rGFP-CAAX, and either 0.12 μg of GGA3-PBD-RlucII, PAK-CRIB-RlucII or Raf-RBD-RlucII. For biosensor validation experiments, cells were additionally transfected with 500 ng Flag-K-Ras-WT, Flag-K-Ras-G12V, Flag-K-Ras-SOS-CAAX, HA-ARF6-WT, HA-ARF6-T27N, Myc-Rac1-WT, Myc-Rac1-Q61L or Myc-Rac1-T17N. For PI3K/Akt activation experiments, cells were transfected with 0.48 μg of rGFP-CAAX and 0.12 μg of Akt (PH)-RlucII. After 18 h of transfection, the media was replaced and cells were divided for subsequent experiments. Cells were detached and seeded onto poly-L-ornithine-coated 96-well flat white bottom plates (BrandTech Scientific) at a density of 2.5 × 10^4 cells per well in media. […] For kinetics of β-arrestin recruitment or β-arrestin binding to receptor and AP-2 experiments, cells were serum starved for 30 min, pretreated with 21 (50 µM) or Barbadin (100 µM) for 30 min, stimulated with 100 nM AngII or 1 µM BK and BRET signals were monitored at indicated times using a Victor X Light plate reader (PerkinElmer). […] The BRET ratio was determined by calculating the ratio of the light emitted by YFP over the light emitted by the RlucII. […] For the kinetics of GTPase and PI3K/Akt activation, cells were serum starved, pretreated with 21 (50 µM) or Wortmannin (200 nM) for 30 min, stimulated with ligand (100 nM AngII or 100 ng/ml EGF) and BRET signals were monitored at indicated times. […] BRET signals were monitored using a Synergy2 (BioTek) microplate reader and coelenterazine 400a (final concentrations of 5 µM) added 3–5 min prior to BRET measurements. […] The BRET ratio was determined by calculating the ratio of the light emitted by rGFP/GFP10 over the light emitted by the RlucII.

[3] = tested on: PI3K/Akt; experiment: PI3K/Akt BRET sensor (Akt (PH)-RlucII / rGFP-CAAX), EGFR-mediated; format: cell-based, human
Protocol: HEK293SL cells were seeded at a density of 7.5 × 10^5 cells per 100-mm dish and 24 h later, transiently transfected as such. For receptor internalization experiments, cells were transfected with 0.12 μg AT1R-RlucII, B2R-RlucII, or β2AR-RlucII and 0.48 μg of either rGFP-CAAX (to assess removal from the PM) or rGFP-FYVE (to assess accumulation in the endosomes). For β-arrestin recruitment assays, cells were transfected with 0.48 μg of receptor-YFP along with 0.12 μg of β-arrestin-RlucII. For β-arrestin/AP-2 binding experiments, cells were transfected with 1 μg Flag-AT1R, 1 μg β2-Adaptin-YFP, and 0.12 μg β-arrestin2-RlucII. For G protein activation, cells were transfected with 3 μg of sp-Flag-AT1R along with either 4.5 μg of the Gαq-polycistronic BRET sensor or 0.24 μg of the Gαi3-RlucII and 0.6 μg of GFP10-Gγ2 and Gβ1 sensors or 0.12 μg PKN-RBD-RlucII and 0.48 μg of rGFP-CAAX. For PKC activation, cells were transfected with 3 μg of sp-Flag-AT1R and 0.18 μg of the PKC sensor. For GTPase activation experiments, cells were transfected with 1 μg Flag-AT1R, 0.48 μg of rGFP-CAAX, and either 0.12 μg of GGA3-PBD-RlucII, PAK-CRIB-RlucII or Raf-RBD-RlucII. For biosensor validation experiments, cells were additionally transfected with 500 ng Flag-K-Ras-WT, Flag-K-Ras-G12V, Flag-K-Ras-SOS-CAAX, HA-ARF6-WT, HA-ARF6-T27N, Myc-Rac1-WT, Myc-Rac1-Q61L or Myc-Rac1-T17N. For PI3K/Akt activation experiments, cells were transfected with 0.48 μg of rGFP-CAAX and 0.12 μg of Akt (PH)-RlucII. After 18 h of transfection, the media was replaced and cells were divided for subsequent experiments. Cells were detached and seeded onto poly-L-ornithine-coated 96-well flat white bottom plates (BrandTech Scientific) at a density of 2.5 × 10^4 cells per well in media. The next day, cells were washed once with Tyrode’s buffer (140 mM NaCl, 2.7 mM KCl, 1 mM CaCl2, 12 mM NaHCO3, 5.6 mM D-glucose, 0.5 mM MgCl2, 0.37 mM NaH2PO4, 25 mM HEPES, pH 7.4) and left in Tyrode’s buffer. For kinetics of β-arrestin recruitment or β-arrestin binding to receptor and AP-2 experiments, cells were serum starved for 30 min, pretreated with 21 (50 µM) or Barbadin (100 µM) for 30 min, stimulated with 100 nM AngII or 1 µM BK and BRET signals were monitored at indicated times using a Victor X Light plate reader (PerkinElmer). Coelenterazine H (final concentration of 5 µM) was added 3–5 min prior to BRET measurements. Filter set was 460/80 nm and 535/30 nm for detecting the RlucII Renilla luciferase (donor) and YFP (acceptor) light emissions, respectively. The BRET ratio was determined by calculating the ratio of the light emitted by YFP over the light emitted by the RlucII. For G protein activation, cells were serum starved, pretreated with compounds for 30 min, stimulated with 100 nM AngII for 2 min (Gαq, Gαi3, and Rho sensors) or 5 min (PKC sensor). For the kinetics of GTPase and PI3K/Akt activation, cells were serum starved, pretreated with 21 (50 µM) or Wortmannin (200 nM) for 30 min, stimulated with ligand (100 nM AngII or 100 ng/ml EGF) and BRET signals were monitored at indicated times. For concentration-response curves, cells were serum-starved, pretreated with various concentrations of compounds for 30 min and stimulated with ligand (100 nM AngII, 1 µM BK, 10 µM Isoproterenol (Iso) or 100 ng/ml EGF) in Tyrode’s buffer for 30 min for receptor internalization, 10 min for ARF6, 2 min for Rac and Rho activation and 5 min for Ras activation and PI3K/Akt activation. BRET signals were monitored using a Synergy2 (BioTek) microplate reader and coelenterazine 400a (final concentrations of 5 µM) added 3–5 min prior to BRET measurements. Filter set was 410/80 nm and 515/30 nm for detecting the RlucII Renilla luciferase (donor) and rGFP/GFP10 (acceptor) light emissions, respectively. The BRET ratio was determined by calculating the ratio of the light emitted by rGFP/GFP10 over the light emitted by the RlucII.

[4] = tested on: ERK1/2 activation by AT1R; experiment: Western blot of AT1R-mediated ERK1/2 phosphorylation; format: cell-based, human; settings: 50 μM
Protocol: as §1

[5] = tested on: MDA-MB-231 cells; experiment: Cell viability assay (MTT), MDA-MB-231; format: cell-based, human; settings: for cell viability (MTT signal): S_Fig12f
Protocol: (§2) MDA-MB-231 breast cancer cells and A549 lung carcinomas (1500 cells in 150 μl/well) were seeded overnight on a clear 96-well plate. Twenty-four hours later, the cells were treated with 0.1% DMSO, or different concentrations of Rasarfin (as indicated), or 10 µM of 21.4, 21.8 (MDA-MB-231 breast cancer cells) or Doxorubicin for the indicated times at 37 °C. At each time point, 10 μl of 5 mg/ml MTT was added to each well and the plates were incubated for an additional 4 h at 37 °C. The absorbance at 590 nm was measured by plate reader. Experiments were done in triplicate and repeated three times.

[6] = tested on: A549 cells; experiment: Cell viability assay (MTT), A549; format: cell-based, human; settings: Doxorubicin
Protocol: as §2

O=C(NOCC1CC1)c1ccc(F)c(F)c1Nc1ccc(I)cc1Cl [PD184352, reference compound]
Predicted (LS) mean diff. DMSO vs. compound (Bonferroni's multiple comparisons test) ([1]; Flag-MEK1 DD): 3.803 | ERK1/2 phosphorylation relative to mock (S_Fig.4c) ([1]; Flag-MEK1 WT): 0.4899 and 0.8 and 0.4446 | Predicted (LS) mean diff. DMSO vs. compound (Bonferroni's multiple comparisons test) ([1]; Flag-MEK1 WT): 0.8426 | ERK1/2 phosphorylation relative to mock (S_Fig.4c) ([1]; mock): 1 | Predicted (LS) mean diff. DMSO vs. compound (Bonferroni's multiple comparisons test) ([1]; mock): 0

C=C1C(=O)N[C@@H](C)C(=O)N(C)[C@@H](C)C(=O)N[C@@H]([C@H](OC(=O)[C@@H](NC(=O)CC)[C@H](O)C(C)C)C(C)C)C(=O)N(C)[C@@H]([C@@H](C)OC)C(=O)O[C@H](C(C)C)[C@H](NC(C)=O)C(=O)O[C@H](Cc2ccccc2)C(=O)N1C [UBO-QIC, reference compound] (Ac-[X1][dPhLac][NMeDha]A[NMeA][X1](Leu(3R-OH,Nα-propionyl))[NMeT](Me); ester 1-C)
Gq BRET sensor signal (S_Fig.4b), single experiments [2]: 0.0505 and 0.06125 and 0.044

COC[C@H]1OC(=O)c2coc3c2[C@@]1(C)C1=C(C3=O)[C@@H]2CCC(=O)[C@@]2(C)C[C@H]1OC(C)=O [Wortmannin, reference compound]
EGF-promoted BRET ([3]; Wortmannin-treated, Log [EGF] (ng/ml) -12): 0

EGF
EGF-promoted BRET ([3]; EGF 100 ng/ml, time 0 min): 0 | EGF-promoted BRET ([3]; EGF 100 ng/ml, time 1 min): 0.3827 and 0.39 | EGF-promoted BRET ([3]; EGF 100 ng/ml, time 2 min): 0.5443 and 0.5547 | EGF-promoted BRET ([3]; EGF 100 ng/ml, time 3 min): 0.521 and 0.605 | EGF-promoted BRET ([3]; EGF 100 ng/ml, time 4 min): 0.6008 and 0.512 and 0.5428 | EGF-promoted BRET ([3]; EGF 100 ng/ml, time 5 min): 0.5307 and 0.4867 and 0.5263

CCC(=O)N1CCN(c2ccc(NC(=O)c3cc4ccccc4o3)cc2Cl)CC1 [Compound 21.2]
inhibition of AT1R-mediated ERK1/2 (MAPK) activation (Fig. 8b) [4]: lost their ability to inhibit MAPK

COc1cccc2c1C(=O)c1c(O)c3c(c(O)c1C2=O)C[C@@](O)(C(=O)CO)C[C@@H]3O[C@H]1C[C@H](N)[C@H](O)[C@H](C)O1 [Doxorubicin, reference compound]
MDA-MB-231 cell viability (MTT) ([5]; Doxorubicin 10 µM): potently killed cells | cell viability (MTT signal) ([5]; 24h): 0.213 and 0.2235 and 0.2068 | cell viability (MTT signal) ([5]; 48h): 0.2026 and 0.1628 and 0.1313 | cell viability (MTT signal) ([5]; 72h): 0.1199 and 0.1728 and 0.1331 | cell viability (MTT signal) ([6]; 24h): 0.213 and 0.2235 and 0.2068 | cell viability (MTT signal) ([6]; 48h): 0.2026 and 0.1628 and 0.1313 | cell viability (MTT signal) ([6]; 72h): 0.1331 and 0.1199 and 0.1728

Reference: paper PMC8333425, “Discovery of a dual Ras and ARF6 inhibitor from a GPCR endocytosis screen” (Nature Communications, 2021)
